Measured values published in ChEMBL document CHEMBL1201861, “Genomics of Drug Sensitity in Cancer screening data, Wellcome Trust Sanger Institute”.
pIC50: −log10 of the molar value.

Assays:
Test in all cases: cells
Settings in all cases: Homo sapiens
CP66-MEL = assay type: functional, cell-based;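 further: growth inhibition of CP66-MEL cells determined in a cell viability assay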
Description: SANGER: Inhibition of human CP66-MEL cell growth in a cell viability assay.

CTB-1 = assay type: functional, cell-based
Description: SANGER: Inhibition of human CTB-1 cell growth in a cell viability assay.

CW-2 = assay type: functional, cell-based;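 further: growth inhibition of CW-2 cells, read out by a cell viability assay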
Description: SANGER: Inhibition of human CW-2 cell growth in a cell viability assay.

D283 Med = assay type: functional, cell-based
Description: SANGER: Inhibition of human D-283MED cell growth in a cell viability assay.

D-502MG = assay type: functional, cell-based
Description: SANGER: Inhibition of human D-502MG cell growth in a cell viability assay.

DMS-114 = assay type: functional, cell-based
DMS-79 = assay type: functional, cell-based;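 further: growth inhibition measured with a cell viability assay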
Description: SANGER: Inhibition of human DMS-79 cell growth in a cell viability assay.

DU-4475 = assay type: functional, cell-based
Description: SANGER: Inhibition of human DU-4475 cell growth in a cell viability assay.

EC-GI-10 = assay type: functional, cell-based
Description: SANGER: Inhibition of human EC-GI-10 cell growth in a cell viability assay.

ES1 = assay type: functional, cell-based
Description: SANGER: Inhibition of human ES1 cell growth in a cell viability assay.

ES3 = assay type: functional, cell-based;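 further: growth inhibition of ES3 cells, read out with a cell viability assay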
Description: SANGER: Inhibition of human ES3 cell growth in a cell viability assay.

ES6 = assay type: functional, cell-based;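 further: growth inhibition of human ES6 cells, read out with a cell viability assay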
Description: SANGER: Inhibition of human ES6 cell growth in a cell viability assay.

ES7 = assay type: functional, cell-based;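 further: growth inhibition of cultured human ES7 cells, read out as cell viability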
Description: SANGER: Inhibition of human ES7 cell growth in a cell viability assay.

GB-1 = assay type: functional, cell-based;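 further: growth of GB-1 cells judged by a viability assay, IC50 marks the concentration inhibiting growth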
Description: SANGER: Inhibition of human GB-1 cell growth in a cell viability assay.

GI-1 = assay type: functional, cell-based
Description: SANGER: Inhibition of human GI-1 cell growth in a cell viability assay.

HCC2218 = assay type: functional, cell-based;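 further: cell viability assay read-out, with IC50 given as the concentration that inhibits growth of the cell line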
Description: SANGER: Inhibition of human HCC2218 cell growth in a cell viability assay.

HDLM-2 = assay type: functional, cell-based;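 further: cell viability assay measuring suppression of HDLM-2 proliferation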
Description: SANGER: Inhibition of human HDLM-2 cell growth in a cell viability assay.

HT = assay type: functional, cell-based
Description: SANGER: Inhibition of human HT cell growth in a cell viability assay.

IST-MES1 = assay type: functional, cell-based;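 further: growth inhibition of IST-MES1 cells, measured with a cell viability assay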
Description: SANGER: Inhibition of human IST-MES1 cell growth in a cell viability assay.

J-RT3-T3-5 = assay type: functional, cell-based;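 further: cell viability assay measuring growth inhibition of human J-RT3-T3-5 cells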
Description: SANGER: Inhibition of human J-RT3-T3-5 cell growth in a cell viability assay.

JVM-3 = assay type: functional, cell-based;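 further: growth inhibition of human JVM-3 cells, read out with a cell viability assay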
Description: SANGER: Inhibition of human JVM-3 cell growth in a cell viability assay.

KG-1 = assay type: functional, cell-based;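 further: growth inhibition of KG-1 cells, read out by a cell viability assay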
Description: SANGER: Inhibition of human KG-1 cell growth in a cell viability assay.

KP-N-YS = assay type: functional, cell-based;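 further: cell viability assay measuring inhibition of cell line growth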
Description: SANGER: Inhibition of human KP-N-YS cell growth in a cell viability assay.

KU812 cell line = assay type: functional, cell-based;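 further: growth inhibition of KU812 cells, read out with a cell viability assay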
Description: SANGER: Inhibition of human KU812 cell growth in a cell viability assay.

KURAMOCHI = assay type: functional, cell-based;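 further: growth inhibition of KURAMOCHI cells, read out with a cell viability assay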
Description: SANGER: Inhibition of human KURAMOCHI cell growth in a cell viability assay.

LB2241-RCC = assay type: functional, cell-based;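 further: cell viability assay measuring how strongly the cultured human renal carcinoma line is prevented from growing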
Description: SANGER: Inhibition of human LB2241-RCC cell growth in a cell viability assay.

LB771-HNC = assay type: functional, cell-based;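 further: growth inhibition of LB771-HNC human cells, read out with a cell viability assay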
Description: SANGER: Inhibition of human LB771-HNC cell growth in a cell viability assay.

LS-513 = assay type: functional, cell-based
Description: SANGER: Inhibition of human LS-513 cell growth in a cell viability assay.

LU-134-A = assay type: functional, cell-based
Description: SANGER: Inhibition of human LU-134-A cell growth in a cell viability assay.

LU-139 = assay type: functional, cell-based
Description: SANGER: Inhibition of human LU-139 cell growth in a cell viability assay.

MC116 = assay type: functional, cell-based;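 further: growth inhibition of MC116 cells, read out with a cell viability assay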
Description: SANGER: Inhibition of human MC116 cell growth in a cell viability assay.

MHH-PREB-1 = assay type: functional, cell-based;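 further: cell viability assay measuring inhibition of proliferation of human MHH-PREB-1 cells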
Description: SANGER: Inhibition of human MHH-PREB-1 cell growth in a cell viability assay.

MLMA = assay type: functional, cell-based;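 further: growth inhibition of MLMA cells (human), determined through a cell viability readout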
Description: SANGER: Inhibition of human MLMA cell growth in a cell viability assay.

MOLT-4 = assay type: functional, cell-based;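 further: growth inhibition of MOLT-4 cells, determined with a cell viability readout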
Description: SANGER: Inhibition of human MOLT-4 cell growth in a cell viability assay.

MSTO-211H = assay type: functional, cell-based
Description: SANGER: Inhibition of human MSTO-211H cell growth in a cell viability assay.

MV4-11 = assay type: functional, cell-based, MV-4-11;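 further: cell viability readout measuring growth inhibition of human MV-4-11 cells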
Description: SANGER: Inhibition of human MV-4-11 cell growth in a cell viability assay.

MZ2-MEL = assay type: functional, cell-based;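 further: growth inhibition of MZ2-MEL cells read out with a cell viability assay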
Description: SANGER: Inhibition of human MZ2-MEL cell growth in a cell viability assay.

NB13 = assay type: functional, cell-based;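 further: cell viability readout measuring growth inhibition of human NB13 cells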
Description: SANGER: Inhibition of human NB13 cell growth in a cell viability assay.

NB69 = assay type: functional, cell-based;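 further: growth inhibition of NB69 cells, determined by a cell viability assay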
Description: SANGER: Inhibition of human NB69 cell growth in a cell viability assay.

NCI-H1299 = assay type: functional, cell-based;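 further: growth inhibition of human NCI-H1299 cells, read out by a cell viability assay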
Description: SANGER: Inhibition of human NCI-H1299 cell growth in a cell viability assay.

NCI-H1770 = assay type: functional, cell-based;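 further: growth inhibition of NCI-H1770 cells determined with a viability readout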
Description: SANGER: Inhibition of human NCI-H1770 cell growth in a cell viability assay.

NCI-H446 = assay type: functional, cell-based;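 further: growth inhibition of NCI-H446 cells determined by a cell viability assay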
Description: SANGER: Inhibition of human NCI-H446 cell growth in a cell viability assay.

NCI-H510A = assay type: functional, cell-based;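 further: growth inhibition of NCI-H510A cells, read out with a cell viability assay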
Description: SANGER: Inhibition of human NCI-H510A cell growth in a cell viability assay.

SNU1 = assay type: functional, cell-based;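 further: growth inhibition of human NCI-SNU-1 cells, measured with a cell viability assay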
Description: SANGER: Inhibition of human NCI-SNU-1 cell growth in a cell viability assay.

NH-12 = assay type: functional, cell-based;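 further: growth inhibition of NH-12 cells, read out with a cell viability assay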
Description: SANGER: Inhibition of human NH-12 cell growth in a cell viability assay.

OCI-AML2 = assay type: functional, cell-based;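 further: growth inhibition of OCI-AML2 cells, read out with a cell viability assay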
Description: SANGER: Inhibition of human OCI-AML2 cell growth in a cell viability assay.

OMC-1 = assay type: functional, cell-based;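 further: growth inhibition of the OMC-1 cell line, measured by a cell viability assay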
Description: SANGER: Inhibition of human OMC-1 cell growth in a cell viability assay.

ONS-76 = assay type: functional, cell-based;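 further: growth inhibition of human ONS-76 cells, read out with a cell viability assay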
Description: SANGER: Inhibition of human ONS-76 cell growth in a cell viability assay.

RPMI-8226 = assay type: functional, cell-based
Description: SANGER: Inhibition of human RPMI-8226 cell growth in a cell viability assay.

Ramos-2G6-4C10 = assay type: functional, cell-based;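 further: growth inhibition of the cell line, measured by a cell viability read-out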
Description: SANGER: Inhibition of human Ramos-2G6-4C10 cell growth in a cell viability assay.

SF-539 = assay type: functional, cell-based;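 further: Read-out is a cell viability assay, with IC50 reflecting inhibition of cell growth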
Description: SANGER: Inhibition of human SF539 cell growth in a cell viability assay.

SK-MEL-1 = assay type: functional, cell-based;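 further: growth inhibition of human SK-MEL-1 cells, read out by a cell viability assay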
Description: SANGER: Inhibition of human SK-MEL-1 cell growth in a cell viability assay.

SK-N-FI = assay type: functional, cell-based;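 further: cell viability assay measuring growth inhibition of human SK-N-FI cells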
Description: SANGER: Inhibition of human SK-N-FI cell growth in a cell viability assay.

SNB-75 = assay type: functional, cell-based;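 further: cell viability assay measuring growth inhibition of human SNB-75 cells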
Description: SANGER: Inhibition of human SNB75 cell growth in a cell viability assay.

SW684 = assay type: functional, cell-based;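 further: growth inhibition of human SW684 cells, measured by a cell viability assay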
Description: SANGER: Inhibition of human SW684 cell growth in a cell viability assay.

SW 954 = assay type: functional, cell-based;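 further: growth inhibition of SW954 human cancer cells, read out as cell viability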
Description: SANGER: Inhibition of human SW954 cell growth in a cell viability assay.

SW982 = assay type: functional, cell-based;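 further: growth inhibition of SW982 cells, read out with a cell viability assay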
Description: SANGER: Inhibition of human SW982 cell growth in a cell viability assay.

697 = assay type: functional, cell-based
Description: SANGER: Inhibition of human 697 cell growth in a cell viability assay.

ALL-PO = assay type: functional, cell-based;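 further: growth inhibition of ALL-PO cells, read out by a cell viability assay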
Description: SANGER: Inhibition of human ALL-PO cell growth in a cell viability assay.

ATN-1 = assay type: functional, cell-based;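 further: growth inhibition of human ATN-1 cells, read out with a cell viability assay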
Description: SANGER: Inhibition of human ATN-1 cell growth in a cell viability assay.

BB30-HNC = assay type: functional, cell-based;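 further: growth inhibition of the cultured cell line, read out by a cell viability assay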
Description: SANGER: Inhibition of human BB30-HNC cell growth in a cell viability assay.

BB65-RCC = assay type: functional, cell-based;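 further: growth inhibition of the cell line, measured with a cell viability assay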
Description: SANGER: Inhibition of human BB65-RCC cell growth in a cell viability assay.

Becker = assay type: functional, cell-based
Description: SANGER: Inhibition of human Becker cell growth in a cell viability assay.

TGBC24TKB = assay type: functional, cell-based
Description: SANGER: Inhibition of human TGBC24TKB cell growth in a cell viability assay.

U-266 = assay type: functional, cell-based
Description: SANGER: Inhibition of human U-266 cell growth in a cell viability assay.

C[C@]12O[C@H](C[C@]1(O)CO)n1c3ccccc3c3c4c(c5c6ccccc6n2c5c31)CNC4=O [LESTAURTINIB]
pIC50 (CP66-MEL): < 5.70 | pIC50 (CTB-1): 6.30 | pIC50 (CW-2): < 5.70 | pIC50 (D283 Med): 6.88 | pIC50 (D-502MG): 6.39 | pIC50 (DMS-114): 5.82 | pIC50 (DMS-79): < 5.70 | pIC50 (DU-4475): 7.01 | pIC50 (EC-GI-10): 6.27 | pIC50 (ES1): 7.02 | pIC50 (ES3): 6.90 | pIC50 (ES6): < 5.70 | pIC50 (ES7): 7.02 | pIC50 (GB-1): 6.62 | pIC50 (GI-1): 6.26 | pIC50 (HCC2218): < 5.70 | pIC50 (HDLM-2): < 5.70 | pIC50 (HT): 5.95 | pIC50 (IST-MES1): < 5.70 | pIC50 (J-RT3-T3-5): 6.44 | pIC50 (JVM-3): 7.53 | pIC50 (KG-1): 6.39 | pIC50 (KP-N-YS): 6.15 | pIC50 (KU812 cell line): 5.99 | pIC50 (KURAMOCHI): < 5.70 | pIC50 (LB2241-RCC): 6.90 | pIC50 (LB771-HNC): < 5.70 | pIC50 (LS-513): 5.90 | pIC50 (LU-134-A): 6.22 | pIC50 (LU-139): < 5.70 | pIC50 (MC116): 6.72 | pIC50 (MHH-PREB-1): 7.57 | pIC50 (MLMA): 6.83 | pIC50 (MOLT-4): 7.15 | pIC50 (MSTO-211H): 6.36 | pIC50 (MV4-11): > 8.11 | pIC50 (MZ2-MEL): 6.63 | pIC50 (NB13): 6.33 | pIC50 (NB69): 6.38 | pIC50 (NCI-H1299): 6.03 | pIC50 (NCI-H1770): < 5.70 | pIC50 (NCI-H446): 5.72 | pIC50 (NCI-H510A): 6.29 | pIC50 (SNU1): 6.74 | pIC50 (NH-12): 6.70 | pIC50 (OCI-AML2): 5.97 | pIC50 (OMC-1): 5.93 | pIC50 (ONS-76): 6.87 | pIC50 (RPMI-8226): 6.41 | pIC50 (Ramos-2G6-4C10): 6.69 | pIC50 (SF-539): 6.76 | pIC50 (SK-MEL-1): < 5.70 | pIC50 (SK-N-FI): 5.96 | pIC50 (SNB-75): 5.83 | pIC50 (SW684): 5.72 | pIC50 (SW 954): 6.54 | pIC50 (SW982): 7.37 | pIC50 697: 7.58 | pIC50 (ALL-PO): 6.77 | pIC50 (ATN-1): 6.98 | pIC50 (BB30-HNC): 6.03 | pIC50 (BB65-RCC): 7.64 | pIC50 (Becker): 6.14 | pIC50 (TGBC24TKB): < 5.70 | pIC50 (U-266): 6.84

CCNC(=O)c1noc(-c2cc(C(C)C)c(O)cc2O)c1-c1ccc(CN2CCOCC2)cc1 [LUMINESPIB]
pIC50 (CP66-MEL): 7.10 | pIC50 (CTB-1): 6.87 | pIC50 (CW-2): < 6.59 | pIC50 (D283 Med): < 6.59 | pIC50 (D-502MG): < 6.59 | pIC50 (DMS-114): < 6.59 | pIC50 (DMS-79): < 6.59 | pIC50 (DU-4475): 7.67 | pIC50 (EC-GI-10): < 6.59 | pIC50 (ES1): 8.57 | pIC50 (ES3): 7.06 | pIC50 (ES6): 7.90 | pIC50 (ES7): 7.47 | pIC50 (GB-1): 7.66 | pIC50 (GI-1): 6.83 | pIC50 (HCC2218): 7.00 | pIC50 (HDLM-2): 7.39 | pIC50 (HT): 6.65 | pIC50 (IST-MES1): < 6.59 | pIC50 (J-RT3-T3-5): 7.05 | pIC50 (JVM-3): < 6.59 | pIC50 (KG-1): < 6.59 | pIC50 (KP-N-YS): 7.08 | pIC50 (KU812 cell line): 7.43 | pIC50 (KURAMOCHI): 7.21 | pIC50 (LB2241-RCC): 7.44 | pIC50 (LB771-HNC): < 6.59 | pIC50 (LS-513): 7.13 | pIC50 (LU-134-A): 7.24 | pIC50 (LU-139): < 6.59 | pIC50 (MC116): < 6.59 | pIC50 (MHH-PREB-1): 7.03 | pIC50 (MLMA): 7.34 | pIC50 (MOLT-4): 7.32 | pIC50 (MSTO-211H): < 6.59 | pIC50 (MV4-11): 9.25 | pIC50 (MZ2-MEL): 7.50 | pIC50 (NB13): 7.37 | pIC50 (NB69): 7.96 | pIC50 (NCI-H1299): 7.94 | pIC50 (NCI-H1770): 7.23 | pIC50 (NCI-H446): < 6.59 | pIC50 (NCI-H510A): < 6.59 | pIC50 (SNU1): 7.10 | pIC50 (NH-12): 7.35 | pIC50 (OCI-AML2): 7.89 | pIC50 (OMC-1): 7.76 | pIC50 (ONS-76): 7.53 | pIC50 (RPMI-8226): 6.93 | pIC50 (Ramos-2G6-4C10): 7.12 | pIC50 (SF-539): < 6.59 | pIC50 (SK-MEL-1): < 6.59 | pIC50 (SK-N-FI): < 6.59 | pIC50 (SNB-75): 7.61 | pIC50 (SW684): < 6.59 | pIC50 (SW 954): 7.97 | pIC50 (SW982): 7.89 | pIC50 697: 7.69 | pIC50 (ALL-PO): 7.76 | pIC50 (ATN-1): < 6.59 | pIC50 (BB30-HNC): 8.02 | pIC50 (BB65-RCC): 7.92 | pIC50 (Becker): 7.82 | pIC50 (TGBC24TKB): < 6.59 | pIC50 (U-266): 6.84
